Data taken from PubChem BioAssay (NCI).
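Assay format: 96-well plates, 48-hour exposure. GI50 marks 50% less growth. The concentration for full growth arrest is given as TGI.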

Columns and labels:
Assay in all cases: NCI-60 cell line screen, 48 h; in the data active = GI50 below about 0.43 µM; inactive = the rest
U251 CNS = test system: U251 CNS
A498 renal = test system: A498 renal
SK-MEL-2 melanoma = test system: SK-MEL-2 melanoma
MDA-MB-231 breast = test system: MDA-MB-231 breast
OVCAR-8 ovarian = test system: OVCAR-8 ovarian
UO-31 renal = test system: UO-31 renal
DU-145 prostate = test system: DU-145 prostate
MALME-3M melanoma = test system: MALME-3M melanoma
MDA-MB-435 = test system: MDA-MB-435
CAKI-1 renal = test system: CAKI-1 renal
M14 melanoma = test system: M14 melanoma
OVCAR-3 ovarian = test system: OVCAR-3 ovarian
TK-10 renal = test system: TK-10 renal
NCI-H226 lung = test system: NCI-H226 lung
SF-295 CNS = test system: SF-295 CNS
HS 578T breast = test system: HS 578T breast
IGROV1 ovarian = test system: IGROV1 ovarian
BT-549 breast = test system: BT-549 breast
HOP-92 NSCLC = test system: HOP-92 NSCLC
SF-268 CNS = test system: SF-268 CNS
PC-3 prostate = test system: PC-3 prostate
NCI/ADR-RES ovarian = test system: NCI/ADR-RES ovarian
K-562 leukemia = test system: K-562 leukemia
786-0 renal = test system: 786-0 renal
EKVX NSCLC = test system: EKVX NSCLC
SNB-75 CNS = test system: SNB-75 CNS
KM12 colon = test system: KM12 colon
CCRF-CEM leukemia = test system: CCRF-CEM leukemia
ACHN renal = test system: ACHN renal
LOX IMVI melanoma = test system: LOX IMVI melanoma
MOLT-4 leukemia = test system: MOLT-4 leukemia
RPMI-8226 leukemia = test system: RPMI-8226 leukemia
UACC-62 melanoma = test system: UACC-62 melanoma
SN12C renal = test system: SN12C renal
SNB-19 CNS = test system: SNB-19 CNS
NCI-H460 lung = test system: NCI-H460 lung
A549 NSCLC = test system: A549 NSCLC
HCC-2998 colon = test system: HCC-2998 colon
HOP-62 NSCLC = test system: HOP-62 NSCLC
SK-MEL-5 melanoma = test system: SK-MEL-5 melanoma
SK-OV-3 ovarian = test system: SK-OV-3 ovarian
OVCAR-4 ovarian = test system: OVCAR-4 ovarian
HCT-116 colon = test system: HCT-116 colon
MCF7 breast = test system: MCF7 breast
SW-620 colon = test system: SW-620 colon
HL-60(TB) leukemia = test system: HL-60(TB) leukemia
NCI-H522 lung = test system: NCI-H522 lung
UACC-257 melanoma = test system: UACC-257 melanoma
COLO 205 colon = test system: COLO 205 colon
SF-539 CNS = test system: SF-539 CNS
T-47D breast = test system: T-47D breast
NCI-H23 lung = test system: NCI-H23 lung
OVCAR-5 ovarian = test system: OVCAR-5 ovarian
HCT-15 colon = test system: HCT-15 colon
HT29 colon = test system: HT29 colon
RXF 393 renal = test system: RXF 393 renal
SR leukemia = test system: SR leukemia
SK-MEL-28 melanoma = test system: SK-MEL-28 melanoma

CCOC(=O)NNC(=O)C1CSC(c2ccccc2)N1C(C)=O (stereo not drawn)
> 100 µM: TGI (U251 CNS) | TGI (A498 renal) | TGI (SK-MEL-2 melanoma) | TGI (MDA-MB-231 breast) | TGI (OVCAR-8 ovarian) | TGI (UO-31 renal) | TGI (DU-145 prostate) | TGI (MALME-3M melanoma) | TGI (MDA-MB-435) | TGI (CAKI-1 renal) | TGI (M14 melanoma) | TGI (OVCAR-3 ovarian) | TGI (TK-10 renal) | TGI (NCI-H226 lung) | TGI (SF-295 CNS) | TGI (HS 578T breast) | TGI (IGROV1 ovarian) | TGI (BT-549 breast) | TGI (HOP-92 NSCLC) | TGI (SF-268 CNS) | TGI (PC-3 prostate) | TGI (NCI/ADR-RES ovarian) | TGI (K-562 leukemia) | TGI (786-0 renal) | TGI (EKVX NSCLC) | TGI (SNB-75 CNS) | TGI (KM12 colon) | TGI (CCRF-CEM leukemia) | TGI (ACHN renal) | TGI (LOX IMVI melanoma) | TGI (MOLT-4 leukemia) | TGI (RPMI-8226 leukemia) | TGI (UACC-62 melanoma) | TGI (SN12C renal) | TGI (SNB-19 CNS) | TGI (NCI-H460 lung) | TGI (A549 NSCLC) | TGI (HCC-2998 colon) | TGI (HOP-62 NSCLC) | TGI (SK-MEL-5 melanoma) | TGI (SK-OV-3 ovarian) | TGI (OVCAR-4 ovarian) | TGI (HCT-116 colon) | TGI (MCF7 breast) | TGI (SW-620 colon) | TGI (HL-60(TB) leukemia) | TGI (NCI-H522 lung) | TGI (UACC-257 melanoma) | TGI (COLO 205 colon) | TGI (SF-539 CNS) | TGI (T-47D breast) | TGI (NCI-H23 lung) | TGI (OVCAR-5 ovarian) | TGI (HCT-15 colon) | TGI (HT29 colon)

COc1cc2c(cc1OCCCOc1cc3c(cc1OC)C(=O)N1C[C@H](F)C[C@H]1C=N3)N=C[C@@H]1C[C@@H](F)CN1C2=O
29.9 µM: TGI (SK-MEL-28 melanoma)
26 µM: TGI (UO-31 renal) | TGI (OVCAR-3 ovarian) | TGI (NCI/ADR-RES ovarian)
17.5 µM: TGI (UACC-62 melanoma)
27.7 µM: TGI (SNB-19 CNS)
17.9 µM: TGI (BT-549 breast)
18.5 µM: TGI (OVCAR-8 ovarian)
14.7 µM: TGI (DU-145 prostate)
7.6 µM: TGI (RXF 393 renal)
28.5 µM: TGI (A549 NSCLC)
28.2 µM: TGI (TK-10 renal)
35.5 µM: TGI (EKVX NSCLC)
23.6 µM: TGI (HCT-15 colon)
10.5 µM: TGI (LOX IMVI melanoma)
27.4 µM: TGI (MDA-MB-435) | TGI (COLO 205 colon)
17.6 µM: TGI (CAKI-1 renal)
5.71 µM: TGI (SK-MEL-2 melanoma)
18 µM: TGI (HOP-92 NSCLC)
17.8 µM: TGI (NCI-H23 lung)
inactive: GI50 (U251 CNS) 1.96 µM | GI50 (SK-MEL-2 melanoma) 2.04 µM | GI50 (MDA-MB-231 breast) 16 µM | GI50 (OVCAR-8 ovarian) 6.3 µM | GI50 (UO-31 renal) 13.2 µM | GI50 (DU-145 prostate) 3.44 µM | GI50 (MALME-3M melanoma) 4.28 µM | GI50 (MDA-MB-435) 14.3 µM | GI50 (CAKI-1 renal) 4.83 µM | GI50 (RXF 393 renal) 2.4 µM | GI50 (M14 melanoma) 3.52 µM | GI50 (SR leukemia) 1.54 µM | GI50 (OVCAR-3 ovarian) 9.75 µM | GI50 (TK-10 renal) 15 µM | GI50 (SF-295 CNS) 5.36 µM | GI50 (IGROV1 ovarian) 1.89 µM | GI50 (BT-549 breast) 3.36 µM | GI50 (HOP-92 NSCLC) 5.18 µM | GI50 (SF-268 CNS) 2.26 µM | GI50 (PC-3 prostate) 12.6 µM | GI50 (NCI/ADR-RES ovarian) 11.9 µM | GI50 (K-562 leukemia) 2.98 µM | GI50 (786-0 renal) 8.45 µM | GI50 (EKVX NSCLC) 18.7 µM | GI50 (KM12 colon) 12.7 µM | GI50 (CCRF-CEM leukemia) 3.8 µM | GI50 (ACHN renal) 10.5 µM | GI50 (LOX IMVI melanoma) 2.41 µM | GI50 (MOLT-4 leukemia) 1.33 µM | GI50 (RPMI-8226 leukemia) 2.01 µM | GI50 (UACC-62 melanoma) 4.79 µM | GI50 (SN12C renal) 5.6 µM | GI50 (SNB-19 CNS) 14 µM | GI50 (NCI-H460 lung) 6.15 µM | GI50 (A549 NSCLC) 13.6 µM | GI50 (HOP-62 NSCLC) 6.2 µM | GI50 (SK-OV-3 ovarian) 17.9 µM | GI50 (OVCAR-4 ovarian) 16.2 µM | GI50 (HCT-116 colon) 6.4 µM | GI50 (MCF7 breast) 3.09 µM | GI50 (SW-620 colon) 4.2 µM | GI50 (NCI-H522 lung) 1.88 µM | GI50 (COLO 205 colon) 14.4 µM | GI50 (T-47D breast) 15.9 µM | GI50 (NCI-H23 lung) 5.83 µM | GI50 (OVCAR-5 ovarian) 13.2 µM | GI50 (SK-MEL-28 melanoma) 15.7 µM | GI50 (HCT-15 colon) 10.3 µM | GI50 (HT29 colon) 17.3 µM
20 µM: TGI (SW-620 colon)
37.3 µM: TGI (PC-3 prostate)
32.9 µM: TGI (SK-OV-3 ovarian)
16.4 µM: TGI (M14 melanoma)
31.8 µM: TGI (ACHN renal)
19.3 µM: TGI (HOP-62 NSCLC)
5.88 µM: TGI (IGROV1 ovarian)
25.9 µM: TGI (OVCAR-5 ovarian)
5.79 µM: TGI (RPMI-8226 leukemia)
41.9 µM: TGI (HT29 colon)
20.6 µM: TGI (786-0 renal)
18.1 µM: TGI (MALME-3M melanoma) | TGI (SF-295 CNS) | TGI (MCF7 breast)
4.3 µM: TGI (MOLT-4 leukemia)
6.01 µM: TGI (SF-268 CNS)
4.59 µM: TGI (NCI-H522 lung)
51.7 µM: TGI (CCRF-CEM leukemia)
20.1 µM: TGI (NCI-H460 lung)
31.3 µM: TGI (MDA-MB-231 breast)
19.2 µM: TGI (SN12C renal)
26.7 µM: TGI (KM12 colon)
42.8 µM: TGI (HCT-116 colon)
31.7 µM: TGI (OVCAR-4 ovarian)
12.7 µM: TGI (K-562 leukemia)
4.46 µM: TGI (U251 CNS)
6.38 µM: TGI (SR leukemia)
58 µM: TGI (T-47D breast)
